Numbered stars: 1 amine (or outer) side, 2 acyl side, 3 side chain; on linkers, the order of the positions; unused ones are H or OH. Side chains are listed from the residue outwards. Peptide text beside a SMILES is read from it. * marks the point of attachment. γGlu = O=C(O)[C@H](CCC(=O)[*:2])N[*:1]; Palmitoyl = CCCCCCCCCCCCCCCC(=O)*; AEEA = NCCOCCOCC(=O)O; GABA = NCCCC(=O)O
How the values were obtained:
human GIP receptor [1] = target: T1, human GIP receptor (Homo sapiens, UniProt P48546); assay: cAMP accumulation assay, agonism (ligand alone); type: cell-based; conditions: COS-7 cells, Table 1; for Emax: COS-7, intrinsic cAMP activity
T1 construct: host or cells: COS-7, transient transfection (calcium phosphate), cDNA in pCMV-Script
T1 sequence (P48546 22-466): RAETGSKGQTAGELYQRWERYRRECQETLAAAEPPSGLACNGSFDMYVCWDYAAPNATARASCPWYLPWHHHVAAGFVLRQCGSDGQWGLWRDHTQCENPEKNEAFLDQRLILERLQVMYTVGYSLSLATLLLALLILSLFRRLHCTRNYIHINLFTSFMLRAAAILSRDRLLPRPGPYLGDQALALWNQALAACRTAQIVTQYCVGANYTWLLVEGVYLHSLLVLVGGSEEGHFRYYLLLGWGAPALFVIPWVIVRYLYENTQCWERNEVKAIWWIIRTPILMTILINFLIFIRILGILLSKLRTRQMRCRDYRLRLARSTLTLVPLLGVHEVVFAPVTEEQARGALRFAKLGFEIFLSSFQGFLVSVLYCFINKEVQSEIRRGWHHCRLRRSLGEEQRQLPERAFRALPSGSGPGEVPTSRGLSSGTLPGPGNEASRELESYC

human GIP receptor [2] = target: T1, human GIP receptor; assay: 125I-human GIP competition binding assay, in the presence and absence of 2% HSA; conditions: for IC50: heterologous competition binding, transiently transfected COS-7 cells expressing the human GIP receptor, read-out: Binding;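 on all read-outs here: nonspecific binding taken as radioligand bound to untransfected cells, IC50 obtained from nonlinear regression fits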
Experimental: Transient transfection of the COS-7 cells for cAMP accumulation and competition binding was performed using the calcium phosphate precipitation method with the addition of chloroquine^46-47.
Transient transfected COS-7 cells expressing the human GIP receptor were seeded in clear 96-well plates the day after transfection using a number of cells/well that obtained 5-10% specific binding of the added radioactive ligand. The following day, cells were assayed by competition binding for 3 h at 4° C. using 15-40 pM 125 I-human GIP as well as increasing concentrations unlabeled ligand in 50 mM Hepes buffer (pH 7.2) in the presence and absence of 2% HSA. After incubation, the cells were washed twice in ice-cold binding buffer (+/−2% HSA) and lysed using 200 mM NaOH with 1% SDS for 30 min. Nonspecific binding was determined as the binding of radioactive ligand to untransfected cells.
IC50, EC50, and Ki values were determined by nonlinear regression. […] Ki values were based on the formula for one class of binding sites in homologous competition binding studies and the Cheng Prussoffs formula, respectively (DeBlasi et al., 1989). To determine the HSA binding potential, the fold change in affinity (as determined by IC50) was calculated as IC50 (plus HSA)/IC50 (minus HSA).

human GIP receptor [3] = target: T1, human GIP receptor; assay: cAMP accumulation assay, antagonism of a GIP-mediated cAMP response (50-80% of max); type: cell-based; conditions: for Fold change from GIP(3-30)NH2 (increase in potency): Table 5
Experimental: The day after, the cells were washed twice with Hepes buffered saline (HBS) buffer and incubated with HBS and 1 mM 3-isobutyl-1-methylxanthine (IBMX) for 30 min at 37° C. […] The HitHunter™ cAMP XS assay (DiscoveRx) was carried out according to the manufacturer's instructions.

Row | Compound | Emax (human GIP receptor [1]) [%] | IC50 (human GIP receptor [2]) [nM] | further results
1 | CCCCCCCCCCCC(=O)N[C@@H](CCC(=O)O)C(=O)NCC(=O)N[C@H](C(=O)N[C@@H](Cc1ccccc1)C(=O)N[C@H](C(=O)N[C@@H](CO)C(=O)N[C@@H](CC(=O)O)C(=O)N[C@@H](Cc1ccc(O)cc1)C(=O)N[C@@H](CO)C(=O)N[C@H](C(=O)N[C@@H](C)C(=O)N[C@@H](CCSC)C(=O)N[C@@H](CC(=O)O)C(=O)N[C@@H](CCCCN)C(=O)N[C@H](C(=O)N[C@@H](Cc1c[nH]cn1)C(=O)N[C@@H](CCC(N)=O)C(=O)N[C@@H](CCC(N)=O)C(=O)N[C@@H](CC(=O)O)C(=O)N[C@@H](Cc1ccccc1)C(=O)N[C@H](C(=O)N[C@@H](CC(N)=O)C(=O)N[C@@H](Cc1c[nH]c2ccccc12)C(=O)N[C@@H](CC(C)C)C(=O)N[C@@H](CC(C)C)C(=O)N[C@@H](C)C(=O)N[C@@H](CCC(N)=O)C(=O)N[C@@H](CCCCN)C(N)=O)C(C)C)[C@@H](C)CC)[C@@H](C)CC)[C@@H](C)CC)[C@@H](C)O [AT148, [hGIP(3-30)NH2—C12/3]] | 43 | 24 | EC50 (human GIP receptor [1]; read-out: cAMP agonism nM (EC50)): 13 nM
2 | CCCCCCCCCCCC(=O)NCCCC[C@H](NC(=O)[C@H](CC(=O)O)NC(=O)[C@H](CCSC)NC(=O)[C@H](C)NC(=O)[C@@H](NC(=O)[C@H](CO)NC(=O)[C@H](Cc1ccc(O)cc1)NC(=O)[C@H](CC(=O)O)NC(=O)[C@H](CO)NC(=O)[C@@H](NC(=O)[C@H](Cc1ccccc1)NC(=O)[C@@H](NC(=O)CNC(=O)[C@@H](N)CCC(=O)O)[C@@H](C)O)[C@@H](C)CC)[C@@H](C)CC)C(=O)N[C@H](C(=O)N[C@@H](CCCNC(=N)N)C(=O)N[C@@H](CCC(N)=O)C(=O)N[C@@H](CCC(N)=O)C(=O)N[C@@H](CC(=O)O)C(=O)N[C@@H](Cc1ccccc1)C(=O)N[C@H](C(=O)N[C@@H](CC(N)=O)C(=O)N[C@@H](Cc1c[nH]c2ccccc12)C(=O)N[C@@H](CC(C)C)C(=O)N[C@@H](CC(C)C)C(=O)N[C@@H](C)C(=O)N[C@@H](CCC(N)=O)C(=O)N[C@@H](CCCNC(=N)N)C(N)=O)C(C)C)[C@@H](C)CC [AT153, [hGIP(3-30)NH2[H18R; K30R]-C12/16]] | 0 | 316 | 
3 | CCCCCCCCCCCC(=O)NCCCC[C@H](NC(=O)[C@H](CC(=O)O)NC(=O)[C@H](CCSC)NC(=O)[C@H](C)NC(=O)[C@@H](NC(=O)[C@H](CO)NC(=O)[C@H](Cc1ccc(O)cc1)NC(=O)[C@H](CC(=O)O)NC(=O)[C@H](CO)NC(=O)[C@@H](NC(=O)[C@H](Cc1ccccc1)NC(=O)[C@@H](NC(=O)CNC(=O)[C@@H](N)CCC(=O)O)[C@@H](C)O)[C@@H](C)CC)[C@@H](C)CC)C(=O)N[C@H](C(=O)N[C@@H](Cc1c[nH]cn1)C(=O)N[C@@H](CCC(N)=O)C(=O)N[C@@H](CCC(N)=O)C(=O)N[C@@H](CC(=O)O)C(=O)N[C@@H](Cc1ccccc1)C(=O)N[C@H](C(=O)N[C@@H](CC(N)=O)C(=O)N[C@@H](Cc1c[nH]c2ccccc12)C(=O)N[C@@H](CC(C)C)C(=O)N[C@@H](CC(C)C)C(=O)N[C@@H](C)C(=O)N[C@@H](CCC(N)=O)C(=O)N[C@@H](CCCCN)C(N)=O)C(C)C)[C@@H](C)CC [AT154, [hGIP(3-30)NH2—C12/16]] |  | 27 | cAMP agonism Emax (human GIP receptor [1]; intrinsic cAMP activity): 0%
4 | CCCCCCCCCCCCCCCCCC(=O)NCCCC[C@H](NC(=O)[C@H](CC(=O)O)NC(=O)[C@H](CCSC)NC(=O)[C@H](C)NC(=O)[C@@H](NC(=O)[C@H](CO)NC(=O)[C@H](Cc1ccc(O)cc1)NC(=O)[C@H](CC(=O)O)NC(=O)[C@H](CO)NC(=O)[C@@H](NC(=O)[C@H](Cc1ccccc1)NC(=O)[C@@H](NC(=O)CNC(=O)[C@@H](N)CCC(=O)O)[C@@H](C)O)[C@@H](C)CC)[C@@H](C)CC)C(=O)N[C@H](C(=O)N[C@@H](CCCNC(=N)N)C(=O)N[C@@H](CCC(N)=O)C(=O)N[C@@H](CCC(N)=O)C(=O)N[C@@H](CC(=O)O)C(=O)N[C@@H](Cc1ccccc1)C(=O)N[C@H](C(=O)N[C@@H](CC(N)=O)C(=O)N[C@@H](Cc1c[nH]c2ccccc12)C(=O)N[C@@H](CC(C)C)C(=O)N[C@@H](CC(C)C)C(=O)N[C@@H](C)C(=O)N[C@@H](CCC(N)=O)C(=O)N[C@@H](CCCNC(=N)N)C(N)=O)C(C)C)[C@@H](C)CC [AT162, [hGIP(3-30)NH2[H18R; K30R]-C18/16]] | 44 |  | Fold change in affinity, IC50 (plus HSA)/IC50 (minus HSA) (human GIP receptor [2]; presence vs absence of 2% HSA, proxy for albumin binding): 5.6 fold
5 | CCCCCCCCCCCCCCCC(=O)NCCCC[C@H](NC(=O)[C@H](CC(=O)O)NC(=O)[C@H](CCSC)NC(=O)[C@H](C)NC(=O)[C@@H](NC(=O)[C@H](CO)NC(=O)[C@H](Cc1ccc(O)cc1)NC(=O)[C@H](CC(=O)O)NC(=O)[C@H](CO)NC(=O)[C@@H](NC(=O)[C@H](Cc1ccccc1)NC(=O)[C@@H](NC(=O)CNC(=O)[C@@H](N)CCC(=O)O)[C@@H](C)O)[C@@H](C)CC)[C@@H](C)CC)C(=O)N[C@H](C(=O)N[C@@H](CCCCN)C(=O)N[C@@H](CCC(N)=O)C(=O)N[C@@H](CCC(N)=O)C(=O)N[C@@H](CC(=O)O)C(=O)N[C@@H](Cc1ccccc1)C(=O)N[C@H](C(=O)N[C@@H](CC(N)=O)C(=O)N[C@@H](Cc1c[nH]c2ccccc12)C(=O)N[C@@H](CC(C)C)C(=O)N[C@@H](CC(C)C)C(=O)N[C@@H](C)C(=O)N[C@@H](CCC(N)=O)C(=O)N[C@@H](CCCCN)C(N)=O)C(C)C)[C@@H](C)CC [AT163, [hGIP(3-30)NH2[H18K]-C16/16]] (H-EGTFISDYSIAMDK(Palmitoyl)IKQQDFVNWLLAQK-NH2; N-terminus assumed) | 0 | 205 | 
6 | CCCCCCCCCCCCCCCC(=O)NCCCC(=O)NCCCC[C@H](NC(=O)[C@@H](NC(=O)[C@H](CCCCN)NC(=O)[C@H](CC(=O)O)NC(=O)[C@H](CCSC)NC(=O)[C@H](C)NC(=O)[C@@H](NC(=O)[C@H](CO)NC(=O)[C@H](Cc1ccc(O)cc1)NC(=O)[C@H](CC(=O)O)NC(=O)[C@H](CO)NC(=O)[C@@H](NC(=O)[C@H](Cc1ccccc1)NC(=O)[C@@H](NC(=O)CNC(=O)[C@@H](N)CCC(=O)O)[C@@H](C)O)[C@@H](C)CC)[C@@H](C)CC)[C@@H](C)CC)C(=O)N[C@@H](CCC(N)=O)C(=O)N[C@@H](CCC(N)=O)C(=O)N[C@@H](CC(=O)O)C(=O)N[C@@H](Cc1ccccc1)C(=O)N[C@H](C(=O)N[C@@H](CC(N)=O)C(=O)N[C@@H](Cc1c[nH]c2ccccc12)C(=O)N[C@@H](CC(C)C)C(=O)N[C@@H](CC(C)C)C(=O)N[C@@H](C)C(=O)N[C@@H](CCC(N)=O)C(=O)N[C@@H](CCCCN)C(N)=O)C(C)C [AT165, [hGIP(3-30)NH2[H18K]-C16/18+y-aminobuturic acid]] (H-EGTFISDYSIAMDKIK([GABA-Palmitoyl])QQDFVNWLLAQK-NH2; N-terminus assumed) |  |  | Fold change from GIP(3-30)NH2 (increase in potency) (human GIP receptor [3]): 2.9 fold
7 | CCCCCCCCCCCCCCCC(=O)NCCOCCOCC(=O)N[C@@H](CCC(=O)NCCCC[C@H](NC(=O)[C@@H](NC(=O)[C@H](CCCCN)NC(=O)[C@H](CC(=O)O)NC(=O)[C@H](CCSC)NC(=O)[C@H](C)NC(=O)[C@@H](NC(=O)[C@H](CO)NC(=O)[C@H](Cc1ccc(O)cc1)NC(=O)[C@H](CC(=O)O)NC(=O)[C@H](CO)NC(=O)[C@@H](NC(=O)[C@H](Cc1ccccc1)NC(=O)[C@@H](NC(=O)CNC(=O)[C@@H](N)CCC(=O)O)[C@@H](C)O)[C@@H](C)CC)[C@@H](C)CC)[C@@H](C)CC)C(=O)N[C@@H](CCC(N)=O)C(=O)N[C@@H](CCC(N)=O)C(=O)N[C@@H](CC(=O)O)C(=O)N[C@@H](Cc1ccccc1)C(=O)N[C@H](C(=O)N[C@@H](CC(N)=O)C(=O)N[C@@H](Cc1c[nH]c2ccccc12)C(=O)N[C@@H](CC(C)C)C(=O)N[C@@H](CC(C)C)C(=O)N[C@@H](C)C(=O)N[C@@H](CCC(N)=O)C(=O)N[C@@H](CCCCN)C(N)=O)C(C)C)C(=O)O [AT167, [hGIP(3-30)NH2[H18K]-C16/18+y-glutamic acid+8-amino-3,6-dioxaoctanoic acid]] (H-EGTFISDYSIAMDKIK([γGlu-AEEA-Palmitoyl])QQDFVNWLLAQK-NH2) |  |  | Fold change from GIP(3-30)NH2 (increase in potency) (human GIP receptor [3]): 14.8 fold
8 | CC[C@H](C)[C@H](NC(=O)[C@H](CO)NC(=O)[C@H](Cc1ccc(O)cc1)NC(=O)[C@H](CC(=O)O)NC(=O)[C@H](CO)NC(=O)[C@@H](NC(=O)[C@H](Cc1ccccc1)NC(=O)[C@@H](N)[C@@H](C)O)[C@@H](C)CC)C(=O)N[C@@H](C)C(=O)N[C@@H](CCSC)C(=O)N[C@@H](CC(=O)O)C(=O)N[C@@H](CCCCN)C(=O)N[C@H](C(=O)N[C@@H](Cc1c[nH]cn1)C(=O)N[C@@H](CCC(N)=O)C(=O)N[C@@H](CCC(N)=O)C(=O)N[C@@H](CC(=O)O)C(=O)N[C@@H](Cc1ccccc1)C(=O)N[C@H](C(=O)N[C@@H](CC(N)=O)C(=O)N[C@@H](Cc1c[nH]c2ccccc12)C(=O)N[C@@H](CC(C)C)C(=O)N[C@@H](CC(C)C)C(=O)N[C@@H](C)C(=O)N[C@@H](CCC(N)=O)C(=O)N[C@@H](CCCCN)C(N)=O)C(C)C)[C@@H](C)CC [hGIP(5-30)NH2, reference compound] |  |  | IC50 (human GIP receptor [3]; cAMP accumulation IC50 (nM), antagonism of GIP-mediated cAMP response, COS-7 cells): 27.5 nM; IC50 (human GIP receptor [3]; cAMP antagonism nM (IC50, antagonistic potency), transiently transfected COS-7 cells, Table 1 and text): 28 nM; Binding (+/−HSA) Fold (human GIP receptor [2]; fold change +HSA/−HSA): 1.0
